Literature values in patent publication US20060058589A1, “Animal model to evaluate visceral pain perception” (priority 2002, published 2006).

Test system: visceromotor response to duodenal distention
Details: conscious, freely moving rats; dose-dependent manner

CN1CC[C@]23c4c5ccc(O)c4O[C@H]2[C@@H](O)C=C[C@H]3[C@H]1C5 [morphine]
visceromotor response to duodenal distention: inhibited
